Measured values published in publication PMC6855144, “Examination of the Glycine Betaine-Dependent Methylotrophic Methanogenesis Pathway: Insights Into Anaerobic Quaternary Amine Methylotrophy” (Frontiers in Microbiology, 2019).

Molecular target: T1, MV8460 (MtgB) (Methanolobus vulcani, UniProt A0A7Z8KPC2)
T1 construct: gene FKV42_08460
T1 sequence (A0A7Z8KPC2 1-475): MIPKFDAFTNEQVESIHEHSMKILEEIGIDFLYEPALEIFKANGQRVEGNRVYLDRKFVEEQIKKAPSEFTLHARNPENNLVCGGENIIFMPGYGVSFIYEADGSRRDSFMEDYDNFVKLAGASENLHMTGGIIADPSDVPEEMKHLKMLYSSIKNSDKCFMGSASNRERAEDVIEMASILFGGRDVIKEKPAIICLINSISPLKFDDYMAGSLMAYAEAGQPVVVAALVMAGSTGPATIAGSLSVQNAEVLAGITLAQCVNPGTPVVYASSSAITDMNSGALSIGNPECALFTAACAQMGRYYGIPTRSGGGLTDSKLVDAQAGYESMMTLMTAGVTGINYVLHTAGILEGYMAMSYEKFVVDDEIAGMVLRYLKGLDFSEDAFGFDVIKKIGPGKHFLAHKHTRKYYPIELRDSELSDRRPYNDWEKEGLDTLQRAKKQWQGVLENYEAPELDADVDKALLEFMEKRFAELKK
Test: UV-vis, methylation of free cob(I)alamin at […] nm
Format: biochemical
Details: methyl donor 50 mM; co-substrate cob(I)alamin; 37 °C; anoxic

Question: How did the “UV-vis, methylation of free cob(I)alamin at 540 nm” value turn out when `C[N+](C)(C)CC(=O)[O-]` [GB, glycine betaine] was run?
Answer: Its value is “We detected methylation of free cob(I)alamin by MV8460 using GB as the methyl donor”.
